Measurements published in PMC11901561, “Free Radical Scavenging Activity and Inhibition of Enzyme-Catalyzed Oxidation by trans-aryl-Palladium Complexes” (Molecules, 2025).
Read-outs that look alike come from different tables or passages of the source.

Columns and labels:
[1] = ABTS radical scavenging test (spectrophotometric, 734 nm); conditions: concentration scavenging 50% of ABTS•+; MeOH, 30 min; mean ± SD
Description: (§1) Radical scavenging capacity, as an indicator of the antioxidant capacity of compounds against 1,1-diphenyl-2-picrylhydrazyl (DPPH) free radicals and 2,2-azinobis (3-ethyl- enzothiazoline-6-sulfonic acid), ABTS•+ radical cations, was determined using a spectrophotometric assay. Antiradical capacity analysis was performed either on pure MeOH for ABTS or the mixture of MeOH/distilled water (90:10 v/v) for DPPH. For both ABTS and DPPH assays, the stock solutions of complexes were prepared in DMSO. Quercetin was used as an antioxidant standard in the DPPH and ABTS•+ scavenging tests. EC50 is defined as the concentration of compound (µM) required to scavenge 50% of ABTS•+ or DPPH radicals. EC50 values were estimated using nonlinear regression. A lower EC50 value indicates higher antiradical activity.
The ABTS assay was based on the method described by Re et al.. For the generation of ABTS•+ radicals, sodium persulfate (2.45 mM) aqueous solution was mixed with ABTS (7 mM) and incubated overnight in the dark to obtain a dark colored solution. The stock solution of ABTS•+ was then diluted by adding pure methanol (100%) to obtain an absorbance of 0.70 (±0.02) at 734 nm at 30 °C. An aliquot of 0.02 mL of tested compound was added to 1.98 mL of ABTS•+, and the decrease in absorbance was monitored at 734 nm after 30 min [80]. During this reaction, the blue green ABTS radical cation is converted back into its colorless neutral form in the presence of the potential antioxidant molecule. A control consisted of 0.02 mL of DMSO in 1.98 mL of ABTS•+ solution. The reducing capacity was determined according to the following formula:% inhibition = (A control − A Sample) × 100/A Control (1)
(§2) Results were expressed as mean values ± standard deviation (SD). All measurements were replicated three times. EC50 values were calculated with GraphPad Prism 6.0 (GraphPad Software, San Diego, CA, USA) under the application of the function “log (inhibitor) versus normalized response-variable slope” after converting the concentrations into their decimal logarithm. The results were analyzed using Student’s test and a two-way analysis of variance (ANOVA), and a multiple comparison of all data was performed using Tukey’s multiple comparisons test. p < 0.0001 was considered significant.

[2] = biological target: T1, horseradish peroxidase (HRP) (Armoracia rusticana, UniProt P00433); experiment: biochemical; assay type: biochemical
T1 sequence (P00433 31-338 limits assumed): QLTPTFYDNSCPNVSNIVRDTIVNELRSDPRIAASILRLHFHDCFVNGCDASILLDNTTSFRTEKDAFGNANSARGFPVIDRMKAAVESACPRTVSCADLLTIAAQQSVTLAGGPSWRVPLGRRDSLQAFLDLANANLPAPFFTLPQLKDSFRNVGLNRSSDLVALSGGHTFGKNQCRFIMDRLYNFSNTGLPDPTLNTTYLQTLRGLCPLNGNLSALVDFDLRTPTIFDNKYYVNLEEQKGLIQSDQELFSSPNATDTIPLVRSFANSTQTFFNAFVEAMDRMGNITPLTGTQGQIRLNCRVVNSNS
Description: To investigate the effect of selected palladium (II)-based complexes on the peroxidase (HRP)-catalyzed oxidation of the chemiluminescent probe (L-012), in the presence of hydrogen peroxide (H2O2), the chemiluminescence technique was used. Briefly, plate-reader-based luminescence measurements were performed in white 96-well plates using a Fluoroskan Ascent FL microplate reader (Thermo Labsystems, Vantaa, Finland), with the temperature set at 37 °C. To 5 µL of a stock solution of HRP (1 mg/mL) in phosphate buffer (pH = 7.5) per well, we successively added 10 µL of L-012 (aqueous solution, 0.84 mmoL) and 2 µL of tested compound in 163 µL of buffer solution. The reaction was triggered by adding 20 µL hydrogen peroxide (0.19 µM) to reach the final volume of 200 µL. The light emission, produced from oxidation of L-012 by HRP/H2O2 system, in the presence or absence of the tested palladium complex, was recorded in kinetic mode for 30 min. Inhibition of the emitted light due to tested complexes was associated with higher activity. The following formula was applied to calculate the inhibiting activity of complexes towards the oxidation of L-012 catalyzed by the HRP/H2O2 system:% inhibition = (L control − L Sample) x 100/L Control
as §2

[3] = Antiradical efficiency (kinetic study via DPPH assay)
Description: The reaction between potential antioxidants and the oxidized substrate requires a steady state which will depend on several parameters, such as the reaction time. The time needed to reach the steady state, at the concentration corresponding to EC50, is more and more frequently used and can be defined as TEC50. In brief, TEC50 was determined by plotting the recorded absorbance during the period for the EC50 concentration for the considered antioxidant compound. […] The antiradical efficiency of compounds and their classification are considered according to the work of Sanchez-Moreno [69].

[4] = DPPH radical scavenging test (spectrophotometric, 517 nm)
Description: as §1, with “EC50 is defined as the concentration of compound (µM) required to scavenge 50% of ABTS•+ or DPPH radicals.” left out
The DPPH assay was performed according to the method developed by Brand-Williams et al. slightly modified. A solution of 1 mM DPPH in 90% (v/v) methanol was stirred for 40 min. The absorbance of the solution was adjusted to 0.650 ± 0.020 at 517 nm using fresh 90% (v/v) methanol. Then, 0.02 mL of quercetin taken as a standard or sample was mixed with 1.98 mL of DPPH solution and incubated for 30 min in the dark covered with aluminum foil. When reacting with an antioxidant, the DPPH• radical is converted into DPPH, and its color changes from purple to yellow. The antioxidant effect may be easily evaluated by observing the decrease in visible absorption. The absorbance decrease was monitored at 517 nm after 30 min of incubation with a Hewlett Packard 8453 spectrophotometer. The control consisted of 0.02 mL of DMSO in 1.98 mL of DPPH solution. A similar formula (Equation (1)) was applied to determine the DPPH radical scavenging activity.
as §2

[5] = cited from earlier work
[6] = parameters: method as in earlier work; conditions: values reported in the literature ref 60; read-out: EC50 ABTS, literature values; cited from earlier work

EC50 [1]: 5.56 ± 0.97 µM
Effect on chemiluminescence at lowest concentrations ([2]; 1, 5, and 10 µM, HRP-H2O2/L-012): weak effect
EC50 ([2]; HRP-H2O2/L-012 system, pH 7.5, 37 °C, 30 min, read-out: EC50 chemiluminescence assay): 7.06 ± 2.56 µM
EC50 (g Antioxidant/kg DPPH°) ([4]; EC50 expressed as weight of antioxidant per kg of DPPH radical): 87.98 ± 15 g Antioxidant/kg DPPH°
EC50 ([4]; concentration scavenging 50% of DPPH, 90% MeOH, 30 min, mean ± SD): 5.79 ± 1 µM
Structure (SMILES): O=c1c(O)c(-c2ccc(O)c(O)c2)oc2cc(O)cc(O)c12 [Qrcn, Quercetin, reference compound]
AE (antiradical efficiency) ([3]; AE = 1/EC50.TEC50, DPPH): 0.1873 ×10^−3
Classification of antiradical efficiency ([3]; according to Sanchez-Moreno, from AE value): Low
TEC50 ([3]; time needed to reach the steady state at the EC50 concentration, DPPH): 61 min
EC50 (g antioxidant per Kg of DPPH), literature value [5]: 84 ± 6 g/kg
EC50 [6]: ~15 µM
